According to US20230382915A1, “GCN2 AND PERK KINASE INHIBITORS AND METHODS OF USE THEREOF” (Deciphera Pharmaceuticals, LLC, priority 2021, published 2023):

Tests used:
[1] = system: HT-1080 fibrosarcoma xenograft; assay: HT-1080 xenograft efficacy model; format: in vivo, mice; conditions: 10 mg/kg BID, 14 days of dosing
Description: The HT-1080 xenograft model was performed in compliance with all the laws, regulations and guidelines of the National Institutes of Health (NIH) and with the approval of the Animal Care and Use Committee of Labcorp (Ann Arbor, MI), an AAALAC accredited facility. Food and water were provided ad libitum. […] Female nude mice (6-7 weeks old) were inoculated subcutaneously just below the right high axilla with two million cells in Dulbecco's Phosphate Buffered Saline, using a 27-gauge needle and syringe. When tumor burdens reached 100 mm 3 on average on day 6, mice were randomly assigned into groups such that the mean tumor burden for all groups was within 10% of the overall mean tumor burden for the study population. […] Tumor volume and body weight were measured three time per week. Tumor burden (mg) was estimated from caliper measurements by the formula: tumor burden (mg=mm 3)=(length×width 2)/2.

[2] = system: Follicular lymphoma cells; assay: Cell proliferation, combination with standard of care, follicular lymphoma; format: cell-based; conditions: with 41 nM ibrutinib, 96 h, FIG. 6D; read-out: inhibition of cell proliferation IC50, combination treatment
Description: H929, RPMI8226, GA-10 and DoHH-2 cells (catalog #CRL-9068) were obtained from the American Type Culture Collection (ATTC, Manassas, VA). H929 Cells were maintained in RPMI-1640 medium supplemented with 20% heat-inactivated fetal bovine serum (catalog #A3840002, ThermoFisher Scientific, Waltham, MA), 1% Penicillin/Streptomycin/L-Glutamine (catalog #10378016, ThermoFisher Scientific, Waltham, MA), and 0.05 mM 2-mercaptoethanol (catalog #21985-023, ThermoFisher Scientific, Waltham, MA). […]
For cell proliferation assay appropriate number of cells (Forty thousand cells for H929. Twenty thousand cells for RPMI8226 and GA-10. Eight thousand cells for DoHH-2) were seeded per well in 200 μL in respective medium were dispensed into a 96-well black clear bottom plate. […] Plates were read on a Synergy2 or equivalent reader (Biotek, Winooski VT) using an excitation of 540 nm and an emission of 600 nm. At the end of the incubation of DoHH-2, cell viability was determined using CellTiter-Glo® assay (Promega, Madison, WI). Luminescence was measured using EnVision MultiLabel Reader (PerkinElmer, Waltham, MA). Data was analyzed using GraphPad Prism software (GraphPad, San Diego, CA) to calculate IC50 values.

[3] = system: HT-1080 cell line with GCN2 or PERK knockdown; assay: HT-1080 shRNA knockdown assay; format: cell-based
Description: Fibrosarcoma cell line HT-1080 (catalog […]) was obtained from the American Type Culture Collect (ATTC, Manassas, VA). Cells were grown in RPMI-1640 medium supplemented with 10% heat-inactivated fetal bovine serum and 1% Penicillin/Streptomycin/L-Glutamine (Invitrogen, Carlsbad, CA) at 37° C., 5% CO2, and 95% humidity and maintained at 50-80% confluency until use. shRNAs-expressing constructs targeting PERK, GCN2 or scrambled control were obtained from MISSION (Sigma, St. Louis, MO) and lentiviruses containing each construct were produced in-house. Cells were plated at 400,000 cells/well in 6-well tissue culture plates (ThermoFisher Scientific, Waltham, MA) with complete growth media and incubated overnight at 37° C., 5% CO2, and 95% humidity to attach. The next day, existing media was removed from each well and replenished with 1 mL/well fresh media containing 5 μg/mL polybrene (VectorBuilder, Chicago, IL). Cells were transduced with 200 μL/well corresponding lentivirus for 24 hours before being processed for western blot and cell proliferation assays.

[4] = biological target: PERK oligomers (HEK-293 cells) (Homo sapiens (Human), UniProt Q9NZJ5); assay: Detection of PERK oligomerization using NanoBRET; format: cell-based; conditions: HEK-293, 4 h, FIG. 2; read-out: stimulation of the formation of PERK oligomers EC50
PERK oligomers (HEK-293 cells), sequence (Q9NZJ5 30-1116): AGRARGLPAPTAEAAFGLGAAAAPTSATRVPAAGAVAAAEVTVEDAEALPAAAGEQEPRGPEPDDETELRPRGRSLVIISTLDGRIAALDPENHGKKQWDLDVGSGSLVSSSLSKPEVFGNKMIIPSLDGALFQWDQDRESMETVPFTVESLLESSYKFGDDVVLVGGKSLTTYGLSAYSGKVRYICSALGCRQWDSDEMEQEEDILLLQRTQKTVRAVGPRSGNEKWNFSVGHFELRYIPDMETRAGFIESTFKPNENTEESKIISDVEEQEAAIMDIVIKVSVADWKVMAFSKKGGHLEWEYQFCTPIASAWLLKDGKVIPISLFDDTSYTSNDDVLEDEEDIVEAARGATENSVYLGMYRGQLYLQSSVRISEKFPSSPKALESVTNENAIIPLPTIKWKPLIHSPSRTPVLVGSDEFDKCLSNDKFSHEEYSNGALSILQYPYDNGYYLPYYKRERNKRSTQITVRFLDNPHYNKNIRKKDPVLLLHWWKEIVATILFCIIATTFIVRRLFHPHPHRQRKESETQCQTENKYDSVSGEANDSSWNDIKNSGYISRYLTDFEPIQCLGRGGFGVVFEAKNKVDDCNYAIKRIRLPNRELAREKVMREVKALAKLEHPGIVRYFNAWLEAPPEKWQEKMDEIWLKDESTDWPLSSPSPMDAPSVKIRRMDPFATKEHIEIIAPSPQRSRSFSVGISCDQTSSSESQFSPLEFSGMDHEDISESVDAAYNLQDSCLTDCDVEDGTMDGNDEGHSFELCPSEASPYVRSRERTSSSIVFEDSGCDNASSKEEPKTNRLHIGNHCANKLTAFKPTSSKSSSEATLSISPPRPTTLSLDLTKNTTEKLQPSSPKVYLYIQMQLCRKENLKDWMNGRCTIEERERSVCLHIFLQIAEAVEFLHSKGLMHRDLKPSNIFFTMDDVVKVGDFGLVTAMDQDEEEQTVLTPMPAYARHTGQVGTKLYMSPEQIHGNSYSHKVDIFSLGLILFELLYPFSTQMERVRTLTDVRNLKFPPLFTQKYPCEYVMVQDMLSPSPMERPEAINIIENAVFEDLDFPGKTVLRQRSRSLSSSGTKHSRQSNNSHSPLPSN
PERK oligomers (HEK-293 cells), sequence (Q9NZJ5 30-1116): as above
Description: Constructs for BRET were built using the NanoBRET™ Flexi® PPI Starter System (Promega, Madison, WI). The full-length PERK ORF was obtained from Genscript (Piscataway, NJ). HEK-293 cells (catalog #CRL-1573) were obtained from the American Type Culture Collection (ATTC, Manassas, VA). Cells were grown in MEM medium supplemented with 10% heat-inactivated fetal bovine serum (Invitrogen, Carlsbad, CA) and 1% Penicillin/Streptomycin/L-Glutamine at 37° C., 5% CO2, and 95% humidity. For BRET assays, cells were seeded at a density of 40,000 cells/mL in culture medium in 6-well plates and allowed to attach and recover. Cells were transfected with C-terminally tagged PERK-NLuc and C-terminally tagged PERK-Halo using Lipofectamine LTX (Thermo, Waltham, MA) and allowed to express proteins overnight at 37° C., 5% CO2, and 95% humidity. Cells were then detached from culture dishes using 0.05% trypsin-EDTA, collected, and diluted in assay medium consisting of Opti-MEM® I Reduced Serum Medium supplemented with 4% FBS (Thermo) to 22,000 cells/mL. Cells were dispensed into 96-well cell culture plates and HaloTag® NanoBRET™ 618 Ligand (Promega) was added to a final concentration of 100 nM. […] Donor ([…]) and acceptor (618) emissions were measured on a Synergy Neo2 Multi-Mode Reader (BioTek, Winooski, VT) within 10 min of substrate addition. […]

SMILES: Cn1cc(-c2cccc(NS(=O)(=O)c3cc(Cl)cc(CO)c3Cl)c2F)c2c(N)ncnc21 [Example 2, N-(3-(4-amino-7-methyl-7H-pyrrolo[2,3-d]pyrimidin-5-yl)-2-fluorophenyl)-2,5-dichloro-3-(hydroxymethyl)benzenesulfonamide]
- mean tumor growth inhibition [1]: 50%
- IC50 [2]: 4 nM
- compound-mediated spheroid growth inhibition upon knockdown ([3]; FIG. 13C): attenuated upon knockdown of GCN2 but not PERK
- reduction of compound-mediated upregulation of ATF4 ([3]; upon knockdown of GCN2, FIG. 13B): 75%
- reduction of compound-mediated upregulation of ATF4 ([3]; upon knockdown of PERK, FIG. 13B): 50%
- EC50 [4]: 1.6 nM
